Our source for the IC90 and IC50 values is ChEMBL document CHEMBL1134815, “3,3a-Dihydropyrano[4,3,2-de]quinazolin-2(1H)-ones are potent non-nucleoside reverse transcriptase inhibitors” (Bioorg Med Chem Lett, 2001).

The IC90 is the point of the concentration-response curve where the effect stands at 90%. What is called IC50 is the concentration that gives 50% inhibition. Read a low IC50 as greater potency in that assay.

For experiment [1], the system named is HIV-1 reverse transcriptase (Human immunodeficiency virus 1). The experiment is described as follows: Inhibitory concentration against wild-type virus K103N/[…] and HIV-1 RT double mutant in whole cell antiviral assay.
The target in experiment [2] is Human immunodeficiency virus type 1 reverse transcriptase (Human immunodeficiency virus 1, UniProt Q72547). Briefly: Tested for inhibitory concentration against HIV-1 non-nucleoside reverse transcriptase.
Experiment [3] concerns Human immunodeficiency virus type 1 reverse transcriptase (Human immunodeficiency virus 1), Q72547 [K103N].
Description: Inhibitory concentration against wild-type virus K103N and HIV-1 RT mutant in a whole cell antiviral assay
In experiment [4] the target is Human immunodeficiency virus type 1 reverse transcriptase (Human immunodeficiency virus 1) (UniProt Q72547).
Description: Inhibitory concentration against HIV-1 reverse transcriptase
The subject of experiment [5] is HIV-1 reverse transcriptase (Human immunodeficiency virus 1). The experiment is described as follows: Inhibitory concentration against wild-type virus K103N mutant in a whole cell antiviral assay.
Experiment [6] shares this test system. The experiment is described as follows: Inhibitory concentration against wild-type virus K103N/[…] and HIVdouble mutant in a whole cell antiviral assay.

Regarding `O=C1Nc2ccc(Cl)c(O)c2C(C#Cc2ccccc2)(C(F)(F)F)N1` (stereo unspecified), the figures for the concentration for an effect of 90% (IC90) in experiment [1], in experiment [3] and in experiment [4] were 1940 nM, 30 nM and 6.8 nM, respectively. In experiment [2], this compound came in with an IC50 of 174 nM.

On to `COc1c(Cl)ccc2c1C(C#Cc1cccnc1)(C(F)(F)F)NC(=O)N2` (stereo unspecified), for which the IC90 in experiment [1] was 2540 nM; in experiment [3] it was 147 nM; in experiment [4] it was 7.1 nM. Further, half-maximal inhibition in experiment [2] (IC50) required 139 nM.

Regarding `O=C1Nc2ccc(Cl)c3c2C(C(F)(F)F)(C=C(c2cccnc2)O3)N1` (stereo unspecified), the IC90 was determined as 897 nM in experiment [1], 76 nM in experiment [3] and 4.6 nM in experiment [4]. Also, 122 nM corresponded to half-maximal inhibition in experiment [2] (IC50).

For `O=C1Nc2ccc(Cl)c3c2C(C(F)(F)F)(C=C(c2ccccc2)O3)N1` (stereo unspecified), the figures for the concentration for an effect of 90% (IC90) in experiment [1], in experiment [3] and in experiment [4] were 1660 nM, 46 nM and 8.2 nM, respectively. Also, in experiment [2], the concentration for half-maximal inhibition (IC50) was determined as 244 nM.

Regarding `COc1c(Cl)ccc2c1C(C#Cc1ccccc1)(C(F)(F)F)NC(=O)N2` (stereo unspecified), the 90% effect concentration (IC90) was 5520 nM in experiment [1], 113 nM in experiment [3] and 7.9 nM in experiment [4]. The same compound returned a concentration for half-maximal inhibition (IC50) in experiment [2] of 144 nM.

Compound `O=C1Nc2ccc(Cl)cc2C(C#Cc2ccccc2)(C(F)(F)F)N1` (stereo unspecified) came in with an IC90 in experiment [3] of 7 nM.

As to `O=C1Nc2ccc(Cl)cc2[C@@](/C=C/C2CC2)(C(F)(F)F)N1`, the 90% effect concentration (IC90) in experiment [5] turned out to be 27 nM; in experiment [6] it was 1690 nM.

In the case of `Fc1ccc2c3c1S/C(=C\c1cccnc1)C3(C(F)(F)F)NC(S)=N2` (stereo unspecified), the IC90 amounted to 84 nM in experiment [3] and 7 nM in experiment [4].

With `O=C1Nc2ccc(Cl)cc2[C@@](C#CC2CC2)(C(F)(F)F)N1`, in experiment [1], it took 1100 nM to reach the 90% level (IC90).

In experiment [2], `COc1c(Cl)ccc2c1C(C#CC1CC1)(C(F)(F)F)NC(=O)N2` (stereo unspecified) registered a half-inhibitory concentration (IC50) of 70 nM. Moreover, the IC90 is 7.5 nM in experiment [3] and 3.5 nM in experiment [4].

In the case of `O=C1Nc2ccc(Cl)c(O)c2C(C#CC2CC2)(C(F)(F)F)N1` (stereo unspecified), the 90% effect concentration (IC90) in experiment [1] was 3020 nM; in experiment [3] it was 28 nM; in experiment [4] it was 3.6 nM. For the same compound, in experiment [2], half-maximal inhibition (IC50) was put at 54 nM.

Regarding `O=C1Nc2ccc(Cl)c3c2C(C(F)(F)F)(C=C(C2CC2)O3)N1` (stereo unspecified), the 50% inhibitory concentration (IC50) in experiment [2] worked out at 90 nM. Further, the IC90 in experiment [3] amounted to 76 nM; in experiment [4], 3.6 nM.
